“Also recorded” adds a separate entry of the source. Each block holds one substance with its values, some of them ahead of it.
How the values were obtained:
B16 melanoma heparanase [1] = test: HPLC assay for heparanase inhibition (14C-HS degradation, gel-permeation chromatography); format: biochemical, mouse; conditions: 1 mg/ml in incubation mixture, crude heparanase of 10^6 B16-BL6 cells, 37° C., 6 h
Experimental: A high-speed gel-permeation chromatography system was equipped with a 0.70×75 cm column of Fractogel TSK-HW55(S). Elution was performed with 0.2M NaCl at a flow rate of 1.0 ml/min at 55° C. Each 0.5-ml fraction corresponding to 30-sec elution was collected, mixed with 3 ml of Hydrofluor and its radioactivity determined. Panel A, ^14 C-HS was incubated with heat-inactivated crude heparanase (10^6 B16-BL6-melanoma cell equivalents) at 37° C. for 6 h, and analyzed. B, same incubation as A except that the enzyme was not heat-inactivated.
High-speed gel permeation chromatography was performed as described previously (Irimura et al., (1983a) Anal. Biochem., V 130, pp 461-468) using a Constametric III (LDC-Milton Roy, Riviera Beach, Fla.) with a single 0.7×75 cm stainless steel column packed with Fractogel TSK HW-55(S). Elution was accomplished with 0.2M sodium chloride at flow rates of 1.0 ml/min or 0.75 ml/min. Absorption at 210 nm was monitored for the analogs of chemically modified heparin. For the qualitative examination of radiolabeled HS-degradation products, each fraction corresponding to 30-sec elution was collected into plastic scintillation vials, and radioactivity in each vial was determined after the fraction was mixed with 3.0 ml of Hydrofluor (National Diagnostics, Somerville, N.J.).
Cell extracts were prepared in 5 mM Tris-HCl buffer, pH 7.4, containing 0.25M sucrose, 50 μM calcium chloride, 10 μM phenylmethylsulfonylfluoride, and 0.2% Nonidet P-40 (Irimura et al., (1983). The melanoma extracts were stored frozen at -80° C. and used as crude heparanase.
High-Performance Liquid Chromatography [HPLC] Assay for Heparanase. Fifty microliters of melanoma extract (equivalent to 10^6 cells) were mixed with chemically modified heparin (5 mg/ml in water), 50 μl of 4×heparanase assay buffer (0.4 sodium phosphate buffer, pH 5.8, containing 0.4% Triton X-100, 0.6M sodium chloride, and 0.4% sodium azide) and about 3000 cpm of ^14 C-HS.

B16 melanoma heparanase [2] = test: Solid-phase assay for heparanase inhibitors (3H-HS-agarose beads); format: biochemical, mouse; conditions: B16-BL6 lysate of 10^6 cells, various concentrations, 37° C.
Experimental: The measurements were performed by incubating B16-BL6 melanoma heparanase. The measurements were performed by incubating B16-BL6 melanoma cell lysates equivalent to 10^6 cells with a suspension of ^3 H-HS-agarose beads prepared by partial N-desulfation and ^3 H-acetylation (approximately 20% suspension), and various concentrations of heparanase inhibitors at 37° C. for 24 hr with gentle mixing.
Source of Heparanase. Highly invasive mouse B16 melanoma (B16-BL6) cells were provided by Dr. I. J. Fidler, (M.D. Anderson Hospital, Houston, Tex.) and were cultured as previously described (Irimura et al., (1983a) and Irimura et al. (1984)). Cell extracts were prepared in 5 mM Tris-HCl buffer, pH 7.4, containing 0.25M sucrose, 50 μM calcium chloride, 10 μM phenylmethylsulfonylfluoride, and 0.2% Nonidet P-40 (Irimura et al., (1983). The melanoma extracts were stored frozen at -80° C. and used as crude heparanase.
Preparation of Solid-phase Substrates for Heparanase and Inhibitor Assays.
Solid-phase Assays for Heparanase and Heparanase Inhibitors. ^3 H-HS-agarose was suspended in Dulbecco's phosphate buffered saline (DPBS) at about 20% (v/v). The incubation conditions for the solid-phase assay were identical to those of the HPLC assay, except that 75 μl of the ^3 H-HS-agarose suspension was used instead of the HS so that the incubation mixture consisted of B16 melanoma extract, chemically modified heparins, 4×heparanase assay buffer, and ^3 H-HS-agarose suspension. After incubation, the reaction mixture was placed on ice, chilled 5% trichloroacetic acid (50 ul) added, the mixture incubated for 10 min, and centrifuged. Radioactivity in the supernatant and the pellet was determined separately after mixing with Hydrofluor.

B16-BL6 melanoma cells [3] = test: Experimental blood-borne lung colonization, melanoma cells preincubated with heparins; format: in vivo, C57BL/6 mice; conditions: for Number of colonies (median), Exp 1 / Number of colonies (median), Exp 2 / Number of colonies, Exp 1 (individual mice): cells incubated with 500 ug/ml at 4° C. for 2 hr before i.v. injection, lung, 20 days; for Number of colonies, Exp 1 (individual mice): 9 mice/group
Experimental: Experimental Metastatic Lung Colonization of Melanoma Cells. Male C57BL/6 mice 4 to 6 weeks old were obtained from Charles River, Inc. (Kingston, Md.) and quarantined for 2 weeks. Animals were fed normal rodent chow and unchlorinated spring water. B16-BL6 cells were grown to subconfluence, detached from plastic dishes by incubating in 2 mM EDTA, 0.14M NaCl and 10 mM sodium phosphatebuffer, pH 7.4, for 5-10 min, and suspended in a 1:1 mixture of Dulbecco's modified minimum essential medium and Ham's F12 medium. […] Treated or untreated cells (5×10^4 /0.1 ml) were injected intravenously to each mouse. Mice were killed 20 days later and autopsied. The numbers of pulmonary tumor nodules were counted after the lung was perfused via the trachea with 4% formalin in Dulbecco's phosphate buffered saline. Extrapulmonary tumor formation was assessed in each animal and recorded.

B16-BL6 melanoma = test: Release of 35S-labeled substances from lung capillary endothelial extracellular matrix by melanoma cells; format: cell-based, mouse; conditions: for degradation of sulfated molecules of endothelial matrix by melanoma cells: 35S-labeled matrix, B16-BL6 cells, 37° C., 18 hours
Experimental: FIG. 6: Effects of chemically modified heparins on the release of ^35 S labeled substances from the extracellular matrix of mouse lung capillary endothelial cells in vitro. […] (See: Nakajima et al., Science 220:611-613, 1983, for the methods.)
Effects of chemically modified heparins on the release of ^35 S-labeled polysaccharides from the extra-cellular matrix of mouse lung endothelial cells were studied in vitro. The endothelial cells isolated from mouse lung capillary were grown in the presence of ^35 S-sulfate, and the extracellular matrix-like material was isolated on multiwell plastic tissue culture plates by hypotonic lysis of the cells. The matrices (1 cm diameter) were incubated with mouse B16-BL6 melanoma at 37° C. for 18 hours. The released radioactivity was counted.

B16-BL6 melanoma cells [4] = test: 3H-thymidine incorporation, growth of melanoma cells in tissue culture; format: cell-based, mouse; conditions: with or without 5% fetal bovine serum; 48 h exposure
Experimental: FIG. 7: Effects of chemically modified heparins on the incorporation of ^3 H-thymidine to B16-BL6 melanoma cells grown in tissue culture.
In order to assess a possibility that the effects of modified heparins on the blood-borne lung colonization of B16 melanoma cells were due to their direct toxic effects on the cells, the growth of B16 melanoma in the presence or absence of modified heparins were examined in vitro. B16-BL6 melanoma cells were seeded in multiwell tissue culture plates at a density 10,000 per each 1 cm well in the presence or absence of 5% fetal bovine serum. Six hours later, modified heparins were added, then 24 hours later, ^3 H thymidine was added to a final concentration 5 uCi/ml. After further 24 hour incubation, trichloroacetic acid-insoluble materials were collected, dissolved in 1M sodium hydroxide solution, neutralized and counted on a liquid scintillation counter.

B16-BL6 cells = test: Adhesion of melanoma cells to endothelial cell monolayers; format: cell-based, mouse; conditions: B16 cells pretreated 2 hrs, continuous presence of compounds, 37° C.
Experimental: FIG. 8: Adhesion of B16 melanoma cells to bovine aortic endothelial cell monolayers. FIG. 8(a) B16 melanoma cells were pretreated with modified heparins at room temperature for 2 hrs, and the adhesion assays were performed in the continuous presence of these compounds at 37° C. FIG. 8(b) Endothelial cells were pretreated with modified heparins at 37° C. for 2 hrs, then adhesion assays were performed. (See Nicolson and Custead, (1985) Cancer Res. 45:331-336, for the methods
One of the most critical steps in the tumor cell-microvascular endothelium interaction during metastatic lung colonization of melanoma cells is the adhesive interaction of melanoma cells with endothelial cells. The effects of modified heparins on the adhesion of B16 melanoma to the cell monolayer and to the extracellular matrix of lung capillary endothelial cells were studied in vitro. The endothelial cells were grown in tissue culture and the extracellular matrices were isolated as described in Example 8.

B16-F10 melanoma cells = test: Invasion of organ-cultured lung tissues by melanoma cells; format: cell-based; conditions: organ-cultured minced mouse lung
From the text: FIG. 10: Effects of modified heparins on the B16-F10 melanoma cell-invasionof isolated mouse lung tissues in vitro. The experimental conditions were the same as the adhesion experiments. The invaded cells were counted on 4 μm sections under a light microscope. (See Nicolson et al., (1985) Invasion Metastasis, 5:144-158, for detailed methods.)
The effects of these glycosaminoglycan derivates on organ-specific adhesion and invasion of B16 melanoma cells were studied by using primary organ culture techniques in vitro. Minced lung tissues (0.5-1.0 cubic mm) from C57BL/6 mice were placed in glass vials and incubated in HEPES-buffered Dulbecco's modified minimum essential media containing 10% fetal bovine serum and 50 ug/ml gentamycin under continuous gyration at 66 rpm. After the medium was changed to a fresh medium without gentamycin, B16-F10 melanoma cells were added at a final concentration of 100,000/ml with or without various modified heparins. After various incubation times, the tissues were fixed in buffered formalin and processed for light microscopy. The adhesion and invasion of the tumor cells were examined on […] sections stained with hematoxylin and eosin.

B16 melanoma cells = test: Blood-borne lung colonization, mice treated i.v. with heparins; format: in vivo, C57BL/6 mice; conditions: for Number of lung colonies, Median: 0.1 ml of 5.0 mg/ml i.v. 4 hr before and 20 hr after inoculation of 5×10^4 cells, 20 days; for establishment of metastatic tumor colonies in the lungs, in words: i.v. treatment of mice
Experimental: Chemically modified heparins were tested in mice as inhibitors of blood-borne lung colonization by melanoma cells. Male C57BL/6 mice 4 to 6 weeks old were obtained from Charles River, Inc. and quarantined for 2 weeks. The mice were intravenously inoculated with 5×10^4 B16-BL melanoma cells. Treated mice were intravenously injected with 0.1 ml each of heparin or chemically modified heparin (5.0 mg/ml) 4 hr before and 20 hr after inoculation with the melanoma cells. The chemically modified heparins used were: N-acetylated N-desulfated heparin; carboxyl-reduced heparin; and N-resulfated N, O-desulfated heparin.
Mice were killed 20 days after tumor inoculation and autopsied. The numbers of pulmonary tumor colonies were counted after the lungs were perfused via the trachea with 4% formalin in Dulbecco's phosphate-buffered saline.

[5] = tested on: rat mammary adenocarcinoma MTF7; test: Experimental metastasis of rat mammary adenocarcinoma, rats treated i.v.; format: in vivo, Fischer (F344/CDL) rats; conditions: for Lung Metastases per rat, Median No.: 0.1 ml of 10 mg/ml i.v. 8 h before and 16 h after 5×10^4 MTF7 cells, 30 days; for effectiveness against lung tumor colonies of mammary carcinoma, in words: i.v. treatment of rats
Experimental: Inbred 8-week-old female Fischer (F344/CDL) rats were supplied by the Charles River Breeding Laboratories (Kingston, N.Y.). Animals were quarantined for 7 days before use and feed standard rodent chow and unchlorinated spring water ad libitum. They were maintained under guidelines set forth by the University of Texas M. D. Anderson Cancer Center and the Institute of Laboratory Animal Resources, National Research Council. […] The cells grown at 37° C. in an atmosphere of 5% CO2 in humidified air in an 1:1 mixture of Dulbecco's modified minimum essential media and Ham's F12 media containing 10% fetal bovine serum and no antibiotics in 100 mm-diam. tissue culture plates.
The cells used in this study were in exponential growth phase and were from passages 14 to 20 in vitro and were free of mycoplasma and viral contamination.
Rats (9 per group) were injected i.v. (lateral tail vein) with 0.1 ml of 10 mg/ml solution of heparin, N-acetylated-N-desulfated heparin, or carboxyl-reduced heparin. Eight hours later, the same rats were injected i.v. with 5×10^4 MTF7 mammary carcinoma cells suspended in 0.2 ml serum-free media. Sixteen hours after injections of carcinoma cells, rats were treated with unmodified or chemically modified heparin at the same dose as the previous treatment 8 hours prior to the injection of carcinoma cells.
Rats were killed 30 days after the initial injection of carcinoma cells and examined for the number of lung tumor colonies, that should represent the degree of metastatic spread of mammary carcinoma cells.

melanoma heparanase = conditions: cited from earlier work
blood coagulation = test: Anticoagulation activity by USP standard assay; conditions: % of the anticoagulation activity of unmodified heparin
[6] = tested on: vascular smooth muscle cells; conditions: cited from earlier work

inhibition of degradation of HS by heparanase (HPLC assay) (B16 melanoma heparanase [1]): partially restored | heparanase inhibitory activity (solid-phase assay, release of 3H-HS fragments) (B16 melanoma heparanase [2]): partial restoration of activity
Substance: N-resulfated N- and O-desulfated heparin
anticoagulation activity relative to unmodified heparin (blood coagulation): less than 1% | Number of colonies (median), Exp 2 (B16-BL6 melanoma cells [3]): 8 | degradation of sulfated molecules of endothelial matrix by melanoma cells (B16-BL6 melanoma): effectively blocked the degradation | Number of lung colonies, Median (B16 melanoma cells): 36

heparanase inhibitory activity (solid-phase assay, release of 3H-HS fragments) (B16 melanoma heparanase [2]): weaker inhibitory activity than heparin | incorporation of 3H-thymidine to B16 cells (B16-BL6 melanoma cells [4]): no significant effects
Substance: carboxy-reduced heparin
anticoagulation activity relative to unmodified heparin (blood coagulation): less than 1% | Number of colonies (median), Exp 1 (B16-BL6 melanoma cells [3]): 29 | Number of colonies (median), Exp 2 (B16-BL6 melanoma cells [3]): 51 | Number of colonies, Exp 1 (individual mice) (B16-BL6 melanoma cells [3]): 53 | degradation of sulfated molecules of endothelial matrix by melanoma cells (B16-BL6 melanoma): effectively blocked the degradation | Number of lung colonies, Median (B16 melanoma cells): 6 | establishment of metastatic tumor colonies in the lungs, in words (B16 melanoma cells): most effective | Lung Metastases per rat, Median No. [5]: 25 | effectiveness against lung tumor colonies of mammary carcinoma, in words [5]: also effective

inhibition of degradation of HS by heparanase (HPLC assay) (B16 melanoma heparanase [1]): failed to inhibit degradation | heparanase inhibitory activity (solid-phase assay, release of 3H-HS fragments) (B16 melanoma heparanase [2]): failed to how any inhibitory activity
Substance: completely N-desulfated heparin
anti-proliferative (growth inhibitory) activity [6]: lost their anti-proliferative activity

More lines, now with the values behind:

Substance: Heparin [reference compound]
inhibition of degradation of HS by heparanase (HPLC assay) (B16 melanoma heparanase [1]): no degradation was observed | heparanase inhibitory activity (solid-phase assay, release of 3H-HS fragments) (B16 melanoma heparanase [2]): consistent with those of the HPLC assay | number of visible melanoma colonies in lung, in words (B16-BL6 melanoma cells [3]; 20 days after injection of preincubated cells): greater | Number of colonies (median), Exp 1 (B16-BL6 melanoma cells [3]): 16 | Number of colonies (median), Exp 2 (B16-BL6 melanoma cells [3]): 0 | Number of colonies, Exp 1 (individual mice) (B16-BL6 melanoma cells [3]): 174 | degradation of sulfated molecules of endothelial matrix by melanoma cells (B16-BL6 melanoma): inhibited the degradation | spontaneous (non-enzymatic) release of 35S labeled macromolecules (B16-BL6 melanoma; in the absence of B16 melanoma cells): apparently induced spontaneous release; also recorded: induced non-enzymatic release | incorporation of 3H-thymidine to B16 cells (B16-BL6 melanoma cells [4]): no significant effects | time course of adhesion to endothelial cell monolayer, melanoma cells pretreated (B16-BL6 cells): None of these compounds, including intact heparin, significantly altered | invasion of B16 melanoma cells to lung tissues (B16-F10 melanoma cells): inhibited invasion | Number of lung colonies, Median (B16 melanoma cells): 30 | establishment of metastatic tumor colonies in the lungs, in words (B16 melanoma cells): inhibited formation of lung metastases | Lung Metastases per rat, Median No. [5]: 9 | effectiveness against lung tumor colonies of mammary carcinoma, in words [5]: most effective | inhibition of HS degradation by B16 cell extracts (melanoma heparanase): inhibited HS degradation

Substance: N- and O-desulfated heparin
inhibition of degradation of HS by heparanase (HPLC assay) (B16 melanoma heparanase [1]): failed to inhibit degradation | heparanase inhibitory activity (solid-phase assay, release of 3H-HS fragments) (B16 melanoma heparanase [2]): failed to how any inhibitory activity

Substance: N-acetylated N- and O-desulfated heparin
heparanase inhibitory activity (solid-phase assay, release of 3H-HS fragments) (B16 melanoma heparanase [2]): did not, however, restore the inhibitory activity

Substance: N-acetylated N-desulfated heparin
heparanase inhibitory activity (solid-phase assay, release of 3H-HS fragments) (B16 melanoma heparanase [2]): partially restored | anticoagulation activity relative to unmodified heparin (blood coagulation): less than 1% | Number of colonies (median), Exp 1 (B16-BL6 melanoma cells [3]): 43 | Number of colonies (median), Exp 2 (B16-BL6 melanoma cells [3]): 5 | Number of colonies, Exp 1 (individual mice) (B16-BL6 melanoma cells [3]): 199 | incorporation of 3H-thymidine to B16 cells (B16-BL6 melanoma cells [4]): no significant effects | Number of lung colonies, Median (B16 melanoma cells): 60 | Lung Metastases per rat, Median No. [5]: 29 | effectiveness against lung tumor colonies of mammary carcinoma, in words [5]: also effective | anti-proliferative (growth inhibitory) activity [6]: retained full growth inhibitory properties

Substance: N-desulfated N-resulfated heparin [reference compound]
anti-proliferative (growth inhibitory) activity [6]: retained full growth inhibitory properties
